Usually Kd stands for the constant that tells how readily two partners part at equilibrium. Low readings indicate a tighter complex, high ones a looser complex. For orientation: EC50 means the concentration needed to bring the measured effect to its halfway point. Higher therefore signals lower potency in that assay.

For one data set, the target named is T1, human Nectin-4 protein (Homo sapiens, UniProt Q96NY8).
T1 construct: Human Nectin-4 (residues Gly32-Ser349); host or cells: Sf21 insect cells (baculovirus, pFastbac-1)
T1 sequence (Q96NY8 32-349): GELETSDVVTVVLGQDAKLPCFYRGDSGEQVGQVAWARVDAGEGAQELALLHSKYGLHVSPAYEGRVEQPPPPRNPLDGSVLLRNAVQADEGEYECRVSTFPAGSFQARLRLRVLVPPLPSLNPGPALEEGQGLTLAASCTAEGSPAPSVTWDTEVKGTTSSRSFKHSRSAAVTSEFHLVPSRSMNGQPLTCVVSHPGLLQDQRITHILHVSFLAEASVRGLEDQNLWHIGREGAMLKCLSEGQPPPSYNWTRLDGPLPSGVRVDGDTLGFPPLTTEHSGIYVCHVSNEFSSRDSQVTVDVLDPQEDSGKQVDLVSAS
In words: Nectin-4 Biacore (SPR) binding assay. The following applies: biotinylated human Nectin-4, 25° C. The procedure: Biacore experiments were performed to determine ka (M^−1s^−1), kd (s^−1), KD (nM) values of heterotandem peptides binding to human Nectin-4 protein (obtained from Charles River). Human Nectin-4 (residues Gly32-Ser349; NCBI RefSeq: NP_112178.2) with a gp67 signal sequence and C-terminal FLAG tag was cloned into pFastbac-1 and baculovirus made using standard Bac-to-Bac™ protocols (Life Technologies). Sf21 cells at 1×10^6 ml^−1 in Excell-420 medium (Sigma) at 27° C. were infected at an MOI of 2 with a P1 virus stock and the supernatant harvested at 72 hours. The supernatant was batch bound for 1 hour at 4° C. with Anti-FLAG M2 affinity agarose resin (Sigma) washed in PBS and the resin subsequently transferred to a column and washed extensively with PBS. The protein was eluted with 100 μg/ml FLAG peptide. The eluted protein was concentrated to 2 ml and loaded onto an S-200 Superdex column (GE Healthcare) in PBS at 1 ml/min. 2 ml fractions were collected and the fractions containing Nectin-4 protein were concentrated to 16 mg/ml.
The protein was extensively desalted to remove uncoupled biotin using spin columns into PBS.
For analysis of peptide binding, a Biacore 3000 instrument was used with a CM5 chip (GE Healthcare). Streptavidin was immobilized on the chip using standard amine-coupling chemistry at 25° C. with HBS-N (10 mM HEPES, 0.15 M NaCl, pH 7.4) as the running buffer. Briefly, the carboxymethyl dextran surface was activated with a 7 minute injection of a 1:1 ratio of 0.4 M 1-ethyl-3-(3-dimethylaminopropyl) carbodiimide hydrochloride (EDC)/0.1 M N-hydroxy succinimide (NHS) at a flow rate of 10 μl/min. For capture of streptavidin, the protein was diluted to 0.2 mg/ml in 10 mM sodium acetate (pH 4.5) and captured by injecting 120 μl of streptavidin onto the activated chip surface. Residual activated groups were blocked with a 7 minute injection of 1 M ethanolamine (pH 8.5) and biotinylated Nectin-4 captured to a level of 1,200-1,800 RU. Buffer was changed to PBS/0.05% Tween 20 and a dilution series of the peptides was prepared in this buffer with a final DMSO concentration of 0.5%. The top peptide concentration was 100 nM with 6 further 2-fold dilutions. The SPR analysis was run at 25° C. at a flow rate of 50 μl/min with 60 seconds association and dissociation between 400 and 1,200 seconds depending upon the individual peptide. Data were corrected for DMSO excluded volume effects. All data were double-referenced for blank injections and reference surface using standard processing procedures and data processing and kinetic fitting were performed using Scrubber software, version 2.0c (BioLogic Software). Data were fitted using simple 1:1 binding model allowing for mass transport effects where appropriate.
(SPR reads the build-up and loss of mass on a sensor chip optically.)

In data set [1] the test system is human PBMC co-cultured with 4T1-D02 (Nectin4+). In words: Human PBMC-4T1 co-culture (cytokine release) assay. Format: cell-based. The following applies: anti-CD3 stimulated PBMC, 48 hours. As for the experimental part: Mouse mammary gland tumor cell line 4T1-1 (4T1-Parental) and murine Nectin-4 overexpressing 4T1 (4T1-D02) were cultured in RPMI1640 supplemented with 10% heat-inactivated Fetal Bovine Serum, 100 I.U/ml Penicillin and 100 I.U/Streptomycin, 20 mM HEPES, 1× Non-Essential Amino Acids, and 2 mM L-Glutamine (RPMI working medium). Frozen PBMCs from healthy human donors were thawed and washed one time in room temperature PBS, and then resuspended in RPMI working medium. For tumor cell and PBMC co-culture, 10000 PBMCs and 2000 tumor cells (5:1) were mixed and plated in each well of a 384 well plate. For stimulating human PBMCs, 125 ng/ml of soluble anti-CD3 mAb (clone OKT3) was added to the culture on day 0. Test, control compounds or vehicle controls were added to respective wells and brought the final volume per well to 100u1. Plates were incubated in a 37° C. cell culture incubator with 5% CO2 for up to three days. Supernatants were collected 48 hours after stimulation, and human IL-2 and IFFγ were detected using HTRF assays. Raw data were analyzed using Excel or Prism software to generate standard curves to interpolate protein concentrations. Data represents one study with three different donor PBMC tested in experimental duplicates.

Data set [2] has as its target T2, CD137 (Homo sapiens, UniProt Q07011). In words: CD137 reporter assay, co-culture with Nectin-4 tumour cells.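 For all read-outs here: jurkat reporter cells co-cultured with tumour cells and test article for 6 h, luminescence signal relative to Jurkat plus tumour cells lacking test article.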 Further details: host or cells: Jurkat reporter cells. The following applies: for Fold Induction over Background: tumour target Nectin4, co-culture with H1376, 6 h. Format: cell-based. In general terms: A reporter such as luciferase makes a cellular process visible.

Data set [3] concerns the target T2, CD137. As to the kind of experiment: CD137 Biacore (SPR) binding assay. Further details: purchased R&D systems. The following applies: biotinylated human CD137, 25° C. In short, it runs like this:
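Biotinylated human CD137 captured (270-1500 RU) on streptavidin-coupled dextran chip; peptides up to 500 nM in PBS/0.05% Tween 20, 0.5% DMSO, at 25°C, 60 s association, 900 s dissociation. Double-referenced data fitted to 1:1 binding model, with mass transport where appropriate.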

T2 sequence (Q07011 24-255): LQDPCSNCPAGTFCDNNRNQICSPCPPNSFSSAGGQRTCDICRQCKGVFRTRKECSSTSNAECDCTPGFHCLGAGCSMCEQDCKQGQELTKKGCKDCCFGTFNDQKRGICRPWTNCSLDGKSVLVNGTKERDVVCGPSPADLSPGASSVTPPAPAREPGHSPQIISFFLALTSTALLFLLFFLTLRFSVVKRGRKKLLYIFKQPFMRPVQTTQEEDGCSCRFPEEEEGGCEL

For the molecule `CCCC[C@@H]1NC(=O)[C@H](Cc2ccc(O)cc2)NC(=O)[C@@H]2CCCN2C(=O)[C@H](CC(=O)O)NC(=O)[C@H](C)NC(=O)[C@H](Cc2ccccc2)NC(=O)[C@@H]2CSCCC(=O)N3CN(CN(C3)C(=O)CCSC[C@@H](C(=O)N[C@@H](CNC(=O)CCOCCOCCOCCOCCOCCOCCOCCOCCOCCOCCOCCOCCn3cc(CCC(=O)NCCC(=O)N(C)CC(=O)N(C)CC(=O)N(C)CC(=O)N(C)CC(=O)N(C)CC(=O)N(C)CC(=O)N(C)CC(=O)N(C)CC(=O)N(C)CC(=O)N(C)CC(=O)N[C@H]4CSCCC(=O)N5CN6CN(C5)C(=O)CCSC[C@H](NC(=O)[C@@H](CC(=O)O)NC(=O)[C@H](Cc5cccc7ccccc57)NC(=O)[C@@H]5CCCN5C4=O)C(=O)N[C@@H](CCSC)C(=O)N[C@@H](CCCCNC(=N)N)C(=O)N[C@@H](CC(=O)O)C(=O)N[C@H](Cc4c[nH]c5ccccc45)C(=O)N[C@@H](CO)C(=O)N[C@@H]([C@@H](C)O)C(=O)N4CCC[C@H]4C(=O)N4C[C@H](O)C[C@H]4C(=O)N[C@H](Cc4c[nH]c5ccccc45)C(=O)N[C@H](C(N)=O)CSCCC6=O)nn3)C(N)=O)NC1=O)C(=O)CCSC[C@H](NC(=O)[C@H](C)NC(C)=O)C(=O)N[C@@H]([C@@H](C)CC)C(=O)N[C@@H](CCC(=O)O)C(=O)N[C@@H](CCC(=O)O)C(=O)NCC(=O)N[C@@H](CCC(N)=O)C(=O)N[C@@H](Cc1ccc(O)cc1)C(=O)N2` [BCY9350], the Kd on human Nectin-4 protein was above 200 nM. The “max IFN-y” value in data set [1] was “No Activity up to 1 μM”. Besides, the fold induction at 0.1 µM at CD137 [2] (read-out: Fold Induction over Background at 100 nM) was below 2.

`CCCC[C@@H]1NC(=O)[C@H](Cc2ccc(O)cc2)NC(=O)[C@@H]2CCCN2C(=O)[C@H](CC(=O)O)NC(=O)[C@H](C)NC(=O)[C@H](Cc2ccccc2)NC(=O)[C@@H]2CSCCC(=O)N3CN(CN(C3)C(=O)CCSC[C@@H](C(=O)N[C@@H](CNC(=O)CCc3cn(CCCNC(=O)CN(C)C(=O)CN(C)C(=O)CN(C)C(=O)CN(C)C(=O)CN(C)C(=O)COCCOCCOCCOCCOCCNC(=O)N[C@H]4CSCCC(=O)N5CN6CN(C5)C(=O)CCSC[C@H](NC(=O)[C@@H](CC(=O)O)NC(=O)[C@H](Cc5cccc7ccccc57)NC(=O)[C@@H]5CCCN5C4=O)C(=O)N[C@@H](CCSC)C(=O)N[C@@H](CCCCNC(=N)N)C(=O)N[C@@H](CC(=O)O)C(=O)N[C@@H](Cc4c[nH]c5ccccc45)C(=O)N[C@@H](CO)C(=O)N[C@@H]([C@@H](C)O)C(=O)N4CCC[C@H]4C(=O)N4C[C@H](O)C[C@H]4C(=O)N[C@@H](Cc4c[nH]c5ccccc45)C(=O)N[C@H](C(N)=O)CSCCC6=O)nn3)C(N)=O)NC1=O)C(=O)CCSC[C@H](NC(=O)[C@H](C)NC(C)=O)C(=O)N[C@@H]([C@@H](C)CC)C(=O)N[C@@H](CCC(=O)O)C(=O)N[C@@H](CCC(=O)O)C(=O)NCC(=O)N[C@@H](CCC(N)=O)C(=O)N[C@@H](Cc1ccc(O)cc1)C(=O)N2` [BCY9410]: the Kd on human Nectin-4 protein amounted to 1.49 nM; at CD137 [3], 65.8 nM. For the same molecule, the EC50 on CD137 [2] stood at 1.3 nM. The “Fold Induction over Background” value at CD137 [2] came out at 24 fold.

At human Nectin-4 protein, `CCCC[C@@H]1NC(=O)[C@H](Cc2ccc(O)cc2)NC(=O)[C@@H]2CCCN2C(=O)[C@H](CC(=O)O)NC(=O)[C@H](C)NC(=O)[C@H](Cc2ccccc2)NC(=O)[C@@H]2CSCCC(=O)N3CN(CN(C3)C(=O)CCSC[C@@H](C(=O)N[C@@H](CNC(=O)CCc3cn(CCOCCOCCOCCOCCOCCNC(=O)N[C@H]4CSCCC(=O)N5CN6CN(C5)C(=O)CCSC[C@H](NC(=O)[C@@H](CC(=O)O)NC(=O)[C@H](Cc5cccc7ccccc57)NC(=O)[C@@H]5CCCN5C4=O)C(=O)N[C@@H](CCSC)C(=O)N[C@@H](CCCCNC(=N)N)C(=O)N[C@@H](CC(=O)O)C(=O)N[C@@H](Cc4c[nH]c5ccccc45)C(=O)N[C@@H](CO)C(=O)N[C@@H]([C@@H](C)O)C(=O)N4CCC[C@H]4C(=O)N4C[C@H](O)C[C@H]4C(=O)N[C@@H](Cc4c[nH]c5ccccc45)C(=O)N[C@H](C(N)=O)CSCCC6=O)nn3)C(N)=O)NC1=O)C(=O)CCSC[C@H](NC(=O)[C@H](C)NC(C)=O)C(=O)N[C@@H]([C@@H](C)CC)C(=O)N[C@@H](CCC(=O)O)C(=O)N[C@@H](CCC(=O)O)C(=O)NCC(=O)N[C@@H](CCC(N)=O)C(=O)N[C@@H](Cc1ccc(O)cc1)C(=O)N2` [BCY9411] had a Kd of 1.48 nM. Besides, at CD137 [2], the EC50 came to 14 nM and the “Fold Induction over Background” value is 41 fold. Moreover, binding on CD137 [3] was put at a Kd of 71.1 nM.

For the origin of these results see US11453703B2, “Heterotandem bicyclic peptide complexes” (BicycleTX Limited, priority 2018, dated 2022).
